In US8691852B2, “Amino nicotinic and isonicotinic acid derivatives as DHODH inhibitors” (Amirall, S.A., priority 2006, dated 2014):

Columns and labels:
[1] = target: human DHODH (Homo sapiens (Human), UniProt Q02127); experiment: Inhibition of human DHODH activity assay (DCIP chromogen reduction); details: read-out: hDHODH IC50; human enzyme extract, 200 μM CoQD, 100 μM L-DHO, 120 μM DCIP, 10 min room temperature, absorbance 600 nm
Description: DHODH activity and its inhibition were studied using a chromogen reduction assay with DCIP (2,6-dichlorophenol-indophenol).
Enzyme extracts (8 μl, ˜1.5 μg of human protein) were incubated in 96-well plates. The assay mixture (200 μl) contained 200 μM CoQD, 100 μM L-DHO, 120 μM DCIP in the assay buffer (100 mM HEPES pH 8.0, 150 mM NaCl, 10% Glicerol, 0.05% Triton X-100) and 2 μl of test compound. The compounds were dissolved in DMSO at a stock concentration of 1 mM, and tested at different concentrations varying from 10 μM to 1 μM to calculate an IC50 (concentration of inhibitor required for 50% of inhibition).
The reaction was initiated by adding the enzyme and then incubated for 10 min at room temperature before measuring DCIP reduction by counting a decrease in absorbance at 600 nm using standard instrumentation (Spectramax).
All reactions were carried out in duplicate and graphs, determining IC50 values for each compound, were plotted using the ABase software.

[2] = system: HIV replication; details: at concentration that can be obtained with conventional dosing; cited from earlier work

human DHODH, sequence (Q02127 whole entry): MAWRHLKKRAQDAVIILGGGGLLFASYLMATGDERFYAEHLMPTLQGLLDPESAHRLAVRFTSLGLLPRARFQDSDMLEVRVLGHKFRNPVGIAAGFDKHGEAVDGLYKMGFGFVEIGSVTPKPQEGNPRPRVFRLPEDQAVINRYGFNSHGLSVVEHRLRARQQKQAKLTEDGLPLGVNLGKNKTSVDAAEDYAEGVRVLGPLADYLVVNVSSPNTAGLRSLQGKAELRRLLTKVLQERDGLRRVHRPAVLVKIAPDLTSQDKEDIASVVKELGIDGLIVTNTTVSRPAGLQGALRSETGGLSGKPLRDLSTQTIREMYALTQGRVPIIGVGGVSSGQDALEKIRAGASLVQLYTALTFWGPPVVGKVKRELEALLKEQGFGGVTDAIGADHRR

| SMILES | IC50 [1] [nM] | reduces HIV replication [2] |
| --- | --- | --- |
| Cc1c(-c2ccccc2Cl)cc(F)c(Nc2ncccc2C(=O)O)c1F [Example 57, 2-(2′-chloro-3,5-difluoro-2-methylbiphenyl-4-ylamino)nicotinic acid] | 4 | – |
| Cc1oncc1C(=O)Nc1ccc(C(F)(F)F)cc1 [Leflunomide] | – | about 75% |
| O=C(O)c1ccncc1Nc1ccc(-c2cccc(OC(F)(F)F)c2)cc1F [Example 24, Lithium 3-(3-fluoro-3′-(trifluoromethoxy)biphenyl-4-ylamino)isonicotinate] | 200 | – |
| Cc1c(-c2ccccc2)cc(F)c(Nc2ncccc2C(=O)O)c1F [Example 48, 2-(3,5-difluoro-2-methylbiphenyl-4-ylamino)nicotinic acid] | 5 | – |
| CCOc1cccc(-c2ccc(Nc3cnccc3C(=O)O)c(F)c2)c1 [Example 21, Lithium 3-(3′-ethoxy-3-fluorobiphenyl-4-ylamino)isonicotinate] | 19 | – |
| Cc1c(-c2cccc(OC(F)(F)F)c2)cc(F)c(Nc2ncccc2C(=O)O)c1F [Example 56, 2-(3,5-difluoro-2-methyl-3′-(trifluoromethoxy)biphenyl-4-ylamino)nicotinic acid] | 6 | – |
| Cc1ccccc1-c1cc(F)c(Nc2ncccc2C(=O)O)c(F)c1 [Example 61, 2-(3,5-difluoro-2′-methylbiphenyl-4-ylamino)nicotinic acid] | 11 | – |
| COc1cccc(-c2c(F)c(F)c(Nc3ncccc3C(=O)O)c(F)c2F)c1 [Example 60, 2-(2,3,5,6-tetrafluoro-3′-methoxybiphenyl-4-ylamino)nicotinic acid] | 3 | – |
| COc1cccc(-c2cc(F)c(Nc3ncccc3C(=O)O)c(F)c2)c1F [Example 45, 2-(2′,3,5-trifluoro-3′-methoxybiphenyl-4-ylamino)nicotinic acid] | 53 | – |
| COc1cccc(-c2ccc(Nc3cnccc3C(=O)O)c(OC(F)(F)F)c2)c1 [Example 23, Lithium 3-(3′-methoxy-3-(trifluoromethoxy)biphenyl-4-ylamino)isonicotinate] | 14 | – |
| O=C(O)c1cccnc1Nc1c(F)cc(-c2cccc(OC3CCC3)c2)cc1F [Example 17, 2-(3′-Cyclobutoxy-3,5-difluorobiphenyl-4-ylamino)nicotinic acid] | 90 | – |
| COc1cccc(-c2ccc(Nc3ncccc3C(=O)O)c(Cl)c2)c1 [Example 13, 2-(3-Chloro-3′-methoxybiphenyl-4-ylamino)nicotinic acid] | 150 | – |

Continued, in another order:

| IC50 [1] [nM] | SMILES | reduces HIV replication [2] |
| --- | --- | --- |
| 19 | CCOc1cccc(-c2cc(F)c(Nc3ncccc3C(=O)O)c(F)c2)c1 [Example 19, 2-(3′-Ethoxy-3,5-difluorobiphenyl-4-ylamino)nicotinic acid] | – |
| 110 | Cc1cnc(Nc2ccc(-c3cccc(OC(F)(F)F)c3)cc2F)c(C(=O)O)c1 [Example 33, 2-(3-Fluoro-3′-(trifluoromethoxy)biphenyl-4-ylamino)-5-methylnicotinic acid] | – |
| 17 | O=C(O)c1cccnc1Nc1c(F)cc(-c2cccc(OC3CC3)c2)cc1F [Example 47, 2-(3′-cyclopropoxy-3,5-difluorobiphenyl-4-ylamino)nicotinic acid] | – |
| 5 | O=C(O)c1cc(C2CC2)cnc1Nc1c(F)cc(-c2ccccc2Cl)cc1F [Example 54, 2-(2′-chloro-3,5-difluorobiphenyl-4-ylamino)-5-cyclopropylnicotinic acid] | – |
| 23 | CCOc1cccc(-c2cc(F)c(Nc3ncc(C4CC4)cc3C(=O)O)cc2F)c1 [Example 42, 5-cyclopropyl-2-(3′-ethoxy-2,5-difluorobiphenyl-4-ylamino)nicotinic acid] | – |
| 33 | COc1cccc(-c2ccc(Nc3ncc(C4CC4)cc3C(=O)O)c(F)c2)c1 [Example 34, 5-Cyclopropyl-2-(3-fluoro-3′-methoxybiphenyl-4-ylamino)nicotinic acid] | – |
| 4 | O=C(O)c1cc(C2CC2)cnc1Nc1c(F)cc(-c2cccc(OC(F)(F)F)c2)cc1F [Example 52, 5-cyclopropyl-2-(3,5-difluoro-3′-(trifluoromethoxy)biphenyl-4-ylamino)nicotinic acid] | – |
| 6 | O=C(O)c1cc(C2CC2)cnc1Nc1c(F)cc(-c2cccc(OC3CC3)c2)cc1F [Example 50, 2-(3′-cyclopropoxy-3,5-difluorobiphenyl-4-ylamino)-5-cyclopropylnicotinic acid] | – |
| 99 | COc1cccc(-c2cc(F)c(Nc3ncccc3C(=O)O)cc2C)c1 [Example 37, 2-(5-Fluoro-3′-methoxy-2-methylbiphenyl-4-ylamino)nicotinic acid] | – |
| 12 | CCc1cnc(Nc2c(F)cc(-c3cccc(OC)c3)cc2F)c(C(=O)O)c1 [Example 40, 2-(3,5-difluoro-3′-methoxybiphenyl-4-ylamino)-5-ethylnicotinic acid] | – |
| 88 | COc1cccc(-c2cc(F)c(Nc3ncccc3C(=O)O)cc2F)c1 [Example 6, 2-(2,5-Difluoro-3′-methoxybiphenyl-4-ylamino)nicotinic acid] | – |
| 8 | O=C(O)c1cc(Cl)cnc1Nc1c(F)cc(-c2ccccc2)cc1F [Example 58, 5-chloro-2-(3,5-difluorobiphenyl-4-ylamino)nicotinic acid] | – |
| 200 | CCOc1cccc(-c2ccc(Nc3ncccc3C(=O)O)c(F)c2)c1 [Example 2, 2-(3′-Ethoxy-3-fluorobiphenyl-4-ylamino)nicotinic acid] | – |
